pIC50: −log10 of the molar value.
How the values were obtained:
ERK phosphorylation = ERK phosphorylation (pERK) in A375 cells; type: cell-based
[1] = system: A375 cells expressing the oncogenic NRAS^Q61K mutation; experiment: Cellular growth over time of A375 cells expressing NRAS^Q61K; type: cell-based
[2] = system: H1666 cells endogenously expressing the class III BRAF mutation G466V; experiment: Cellular growth over time in H1666 cells; type: cell-based; settings: G466V
A375 cells [3] = experiment: Cellular confluence of A375 cells by live cell imaging; type: cell-based; settings: end of the 7-day experiment
phospho-ERK (T202/Y204) [4] = experiment: HTRF phospho-ERK (T202/Y204) inhibition assay in A375 cells; type: cell-based; settings: Homo sapiens, A-375, 24 hrs, mean of at least n = 3, read-out: pERK IC50
Protocol: (§1) A375 (harboring BRAF homozygous V600E mutation) were purchased from ATCC. DMEM Medium without phenol red and supplemented with L-glutamine was purchased from Corning (Corning, NY, USA). Advanced phospho-ERK (Thr202/Tyr204) HTRF assay kits were purchased from Cisbio (Bedford, MA, USA). Cell culture flasks and 384-well microplates were acquired from VWR (Radnor, PA, USA) or Corning (Corning, NY, USA).
(§2) Degradation of activated phospho-ERK (T202/Y204) protein was determined based on quantification of FRET signal using the Advanced phospho-ERK (T202/Y204) HTRF assay kit. Test compounds were added to the 384-well plate from a top concentration of 10 μM with 11 points, half log titration in duplicates. A375 cells were added into 384-well plates at a cell density of 8000 cells per well, respectively. The plates were kept at 37° C. with 5% CO2 for 24 hours. Cells treated in the absence of the test compound were the negative control. Positive control was set by wells containing all reagents but no cells. FRET signal was acquired on EnVision™ Multilabel Reader (PerkinElmer, Santa Clara, CA, USA).

A375 cells [5] = experiment: CellTiter-Glo cell growth inhibition, A375 cells; type: cell-based; settings: Homo sapiens, A-375, 72 hr, mean of at least n = 3
Protocol: (§3) A375 cell viability was determined based on quantification of ATP using CellTiter-Glo® 2.0 luminescent Assay kit, which signals the presence of metabolically-active cells. Briefly, test compound was added to 384-well plates at a top concentration of 10 μM with 14 points, half log titration in duplicates. A375 cells were seeded into the 384-well plates in DMEM medium containing 10% FBS at a cell density of 250 cells per well. Cells treated in the absence of the test compound were the negative control, normalized to 100% viability, and cells treated in the absence of CellTiter-Glo® 2.0 were the positive control, normalized to 0% viability. A375 cells were incubated at 37° C. with 5% CO2 for 72 hr. CellTiter-Glo reagent was then added to the cells and Luminescence was acquired on EnVision™ Multilabel Reader (PerkinElmer, Santa Clara, CA, USA).

phospho-ERK (T202/Y204) [6] = experiment: HTRF phospho-ERK (T202/Y204) assay in A375-NRAS^Q61K cells; type: cell-based; settings: 24 hrs, mean of at least n = 3, read-out: pERK IC50
Description: as §1, with “A375-NRAS^Q61K cells” for “A375”, “V600E mutation and NRAS homozygous Q61K” for “V600E”
as §2, with “A375-NRAS^Q61K” for “A375”, “2000” for “8000”, “well.” for “well, respectively.”

A375-NRAS^Q61K cells = experiment: CellTiter-Glo growth inhibition assay, A375-NRAS^Q61K cells; type: cell-based; settings: 96 hr, mean of at least n = 3
Protocol: A375-NRAS^Q61K cells (harboring BRAF homozygous V600E mutation and NRAS homozygous Q61K mutation) were purchased from ATCC. DMEM Medium (without phenol red and supplemented with L-glutamine) was purchased from Corning (Corning, NY, USA). CellTiter-Glo® 2.0 Assay was purchased from Promega (Madison, WI, USA). Cell culture flasks and 384-well microplates were acquired from VWR (Radnor, PA, USA) or Corning (Corning, NY, USA).
as §3, with “A375-NRAS^Q61K cell viability” for “A375 cell viability”, “in duplicates. A375-NRAS^Q61K cells were” for “in duplicates. A375 cells were”, “CO2 for 96 hr. CellTiter-Glo” for “CO2 for 72 hr. CellTiter-Glo”

[7] = biological target: BRAF V600E, test compound and CRBN ternary complex (Homo sapiens, UniProt P15056+Q96SW2, V600E); experiment: AlphaLISA ternary complex formation assay; type: binding; settings: GST-BRAF V600E 16 nM, His-CRBN 64 nM
Sequence of BRAF V600E, test compound and CRBN ternary complex (P15056 whole entry V600E): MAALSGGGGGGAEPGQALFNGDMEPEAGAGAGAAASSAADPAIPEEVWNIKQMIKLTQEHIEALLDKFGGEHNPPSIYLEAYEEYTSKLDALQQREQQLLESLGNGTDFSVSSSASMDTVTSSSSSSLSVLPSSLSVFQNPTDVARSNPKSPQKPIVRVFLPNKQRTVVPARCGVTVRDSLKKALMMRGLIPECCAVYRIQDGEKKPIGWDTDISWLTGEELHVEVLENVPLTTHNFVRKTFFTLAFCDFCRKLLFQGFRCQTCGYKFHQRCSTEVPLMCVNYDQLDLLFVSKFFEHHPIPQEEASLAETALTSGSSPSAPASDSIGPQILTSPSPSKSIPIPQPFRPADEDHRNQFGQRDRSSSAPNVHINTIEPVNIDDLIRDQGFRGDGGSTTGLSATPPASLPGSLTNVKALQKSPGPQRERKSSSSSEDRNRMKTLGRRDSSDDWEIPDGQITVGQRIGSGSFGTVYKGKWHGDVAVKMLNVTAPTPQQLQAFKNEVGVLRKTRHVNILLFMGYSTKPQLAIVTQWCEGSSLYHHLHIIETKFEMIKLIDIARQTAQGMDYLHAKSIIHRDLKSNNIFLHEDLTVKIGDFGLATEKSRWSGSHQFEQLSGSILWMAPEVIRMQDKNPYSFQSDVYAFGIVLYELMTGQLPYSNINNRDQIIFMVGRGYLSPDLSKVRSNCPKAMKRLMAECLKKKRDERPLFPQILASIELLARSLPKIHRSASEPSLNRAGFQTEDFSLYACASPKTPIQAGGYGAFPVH
Sequence of BRAF V600E, test compound and CRBN ternary complex (Q96SW2 whole entry): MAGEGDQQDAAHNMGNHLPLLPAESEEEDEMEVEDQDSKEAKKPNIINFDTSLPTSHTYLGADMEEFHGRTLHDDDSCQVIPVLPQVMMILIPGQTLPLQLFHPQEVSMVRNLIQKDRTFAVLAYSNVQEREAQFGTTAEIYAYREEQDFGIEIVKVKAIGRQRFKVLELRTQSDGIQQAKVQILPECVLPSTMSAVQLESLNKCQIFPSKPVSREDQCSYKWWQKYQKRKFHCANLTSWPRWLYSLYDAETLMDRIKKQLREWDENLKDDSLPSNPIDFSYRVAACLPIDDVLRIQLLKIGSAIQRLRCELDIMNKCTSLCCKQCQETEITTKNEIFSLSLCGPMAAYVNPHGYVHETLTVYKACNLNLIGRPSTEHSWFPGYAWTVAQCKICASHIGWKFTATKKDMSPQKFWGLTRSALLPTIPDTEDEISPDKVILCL
Protocol: Formation of the ternary complex between BRAF V600E, test compound and CRBN was quantified using AlphaLISA® assay. GST-tagged BRAF V600E and His-tagged CRBN were labeled with a donor/acceptor AlphaLISA® pair, and complex formation was monitored via a change in the Alpha-signal. Signal from the control wells was used as a normalization control.
Characterization of the ternary complex formation between GST-BRAF V600E, Compound 157 and his-CRBN was carried out using an AlphaLISA® assay. Compounds were dispensed from serially diluted DMSO stock in low dead volume plates into gray 384-well AlphaPlates using acoustic technology to 1% of total reaction volume. Compounds were arranged vertically in rows A through P. Concentration series were horizontal: columns 1-11, and then duplicates in columns 12-22.
Excitation of the donor beads results in generation of singlet oxygen molecules. […]
A 10 μL mixture containing 16 nM of BRAF V600E and 64 nM of CRBN in 50 mM HEPES (pH 7.4), 200 mM NaCl, 1 mM TCEP, 0.05% Pluronic Acid, 0.1% BSA was added to the wells containing test compounds (columns 1-22) and the negative control wells (column 23). […] Plates were then read on an Envision plate reader with an appropriate AlphaLISA® filter set.

BRAF V600E = BRAF V600E (Homo sapiens, UniProt P15056, V600E); experiment: Western blot of BRAF V600E levels in A375 cells; type: cell-based; set-up: host or cells: A375
Sequence of BRAF V600E (P15056 whole entry V600E): as the sequence (P15056 whole entry V600E) above

LOXL4 = experiment: Global proteomics profiling, A375 cells; type: cell-based, human; settings: 300 nM, 24 hours
Protocol: Each cell line was treated in duplicate with either DMSO or Compound 157 (final concentration 300 nM) for 24 hours in an incubator at 37° C. with 5% CO2. After the 24-hour incubation, cells were harvested, washed twice with PBS, and snap frozen in liquid nitrogen. Samples were re-suspended in lysis buffer [8 M urea, 50 mM HEPES (pH 8.5), 50 mM NaCl, 1× protease inhibitor cocktail] and lysed by sonication at 4° C. with 85% amplitude in a pulse setting with 30 seconds on and 30 seconds off for a total sonication time of 5 minutes. Lysates were centrifuged at maximum speed for 10 minutes at 4° C. and the supernatant collected, reduced for 1 hour at room temperature with 5 mM TCEP, and the cysteine residues were then alkylated with 15 mM iodoacetamide (room temperature, in dark, 30 minutes). Protein content was extracted by methanol-chloroform precipitation and subsequent ice-cold acetone washes. Protein pellets were resuspended in 8 M urea, 50 mM HEPES (pH 8.5) buffer and protein concentrations were measured by BCA assay. […]
For peptide tandem mass tag (TMT) labeling, 100 μg of peptides per sample was prepared at […] concentration in 200 mM HEPES (pH 8.5), 30% acetonitrile (ACN) and each the specific TMT reagent. […] TMT reporter ion intensities were quantified by extracting the signal-to-noise ratio for each. […]

Row | pIC50 (phospho-ERK (T202/Y204) [4]) | GI50 (A375 cells [5]) [nM] | pIC50 (phospho-ERK (T202/Y204) [6]) | GI50 (A375-NRAS^Q61K cells) [nM] | Ternary complex formation (concentration dependence) [7] | BRAF V600E levels (BRAF V600E) | SMILES | ERK phosphorylation by western blot (ERK phosphorylation) | cell growth inhibition [1] | cell growth inhibition [2] | cellular confluence (A375 cells [3]) | LOXL4 protein level change (LOXL4)
1 | 7.87 | 22.5 | 7.43 | 794 | no complex formation was observed | remain unchanged | CCN(C)S(=O)(=O)Nc1ccc(F)c(Oc2ccc3ncn([C@H]4COC5(CCN(C(=O)CC6(O)CCN(c7cc8c(cc7F)c(N7CCC(=O)N(C)C7=O)nn8C)CC6)CC5)C4)c(=O)c3c2)c1C#N [Compound 157^NMe, reference compound] | not as pronounced | not inhibited | not inhibited as significantly | approximately 70% | –
2 | – | – | – | – | – | – | CC(C)(C)c1nc(-c2cccc(NS(=O)(=O)c3c(F)cccc3F)c2F)c(-c2ccnc(N)n2)s1 [dabrafenib, reference compound] | – | – | – | – | decreased on the dabrafenib treated samples, to a lesser extent

Source: patent US12486253B2, “Therapeutics for the degradation of mutant BRAF” (C4 THERAPEUTICS, INC., priority 2021, dated 2025)
